US7132417B2, “2-phenyl-1-[4-(2-aminoethoxy)-benzyl]-indoles as estrogenic agents” (Wyeth, priority 1996, dated 2006)
Structures can show the parent of a compound that is named as a salt.

Columns and labels:
estrogen receptor [1] = target: T1, estrogen receptor (Homo sapiens, UniProt P03372); test: In vitro estrogen receptor binding assay ([3H]-17β-estradiol competition); set-up: expressed in transfected cells; host or cells: CHO cells (100,000 g cytosol); details: read-out: Receptor Binding IC50's
T1 sequence (P03372 1-595): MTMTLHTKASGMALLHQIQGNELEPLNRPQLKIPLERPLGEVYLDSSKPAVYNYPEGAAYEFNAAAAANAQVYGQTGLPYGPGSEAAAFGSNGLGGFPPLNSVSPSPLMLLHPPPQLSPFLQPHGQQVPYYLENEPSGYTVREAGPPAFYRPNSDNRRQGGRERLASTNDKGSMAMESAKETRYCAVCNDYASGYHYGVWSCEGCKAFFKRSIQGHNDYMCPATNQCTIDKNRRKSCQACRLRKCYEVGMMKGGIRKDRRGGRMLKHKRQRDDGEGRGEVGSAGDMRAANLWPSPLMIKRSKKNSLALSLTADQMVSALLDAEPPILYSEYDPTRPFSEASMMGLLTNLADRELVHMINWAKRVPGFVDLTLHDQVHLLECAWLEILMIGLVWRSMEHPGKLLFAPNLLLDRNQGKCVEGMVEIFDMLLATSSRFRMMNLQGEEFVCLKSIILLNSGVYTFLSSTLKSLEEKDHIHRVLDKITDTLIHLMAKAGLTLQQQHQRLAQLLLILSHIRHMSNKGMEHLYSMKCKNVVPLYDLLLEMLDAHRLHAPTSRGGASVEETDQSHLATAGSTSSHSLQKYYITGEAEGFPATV
Description: In Vitro Estrogen Receptor Binding Assay
CHO cells overexpressing the estrogen receptor were grown in 150 mm^2 dishes in DMEM+10% dextran coated charcoal, stripped fetal bovine serum. The plates were washed twice with PBS and once with 10 mM Tris-HCl, pH 7.4, 1 mM EDTA. Cells were harvested by scraping the surface and then the cell suspension was placed on ice. Cells were disrupted with a hand-held motorized tissue grinder using two, 10-second bursts. […] The cytosol was then frozen and stored at −80° C. Protein concentration of the cytosol was estimated using the BCA assay with reference standard protein.
100 uG/100 uL of the receptor preparation was aliquoted per well. […] The plate was incubated at room temperature for 2.5 h. […] 200 uL of the supernatant solution was then removed for scintillation counting. Samples were counted to 2% or 10 minutes, whichever occurs first. […] Also, wells containing radioactivity but no cytosol were processed with charcoal to estimate unremovable DPM of [^3H]
Counts per minute (CPM) of radioactivity were automatically converted to disintegrated per minute (DPM) by the Beckman LS 7500 Scintillation Counter using a set of quenched standards to generate a H No. for each sample.
For the generation of IC50 curves, % binding is plotted vs compound. […] For a description of these methods, see Hulme, E. C., ed. […] Receptor-Ligand Interactions: A Practical Approach. IRL Press, New York. (see especially chapter 8).

estrogen receptor [2] = target: T1, estrogen receptor; test: 2X VIT ERE infection (luciferase) assay; type: cell-based; set-up: expressed in transfected cells; host or cells: Chinese Hamster Ovary cells (CHO), stably transfected; details: for Infection Luciferase Activity 1 uM + 17β estradiol: 1 uM compound + 1 nM 17β-estradiol (test for estrogen antagonism); for Infection Luciferase Activity 1 uM: 1 uM compound, percentage of activity as compared to 17β-estradiol
Description: Method No. 18 2X VIT ERE Infection Assay Cell Maintenance and Treatment
Chinese Hamster Ovary cells (CHO) which had been stably transfected with the human estrogen receptor were maintained in DMEM+10% fetal bovine serum (FBS). 48 h prior to treatment the growth medium was replaced with DMEM lacking phenol red +10% dextran coated charcoal stripped FBS (treatment medium). Cells were plated at a density of 5000 cells/well in 96-well plates containing 200 µL of medium/well.
Reporter DNA (Promega plasmid pGL2 containing two tandem copies of the vitellogenin ERE in front of the minimal thymidine kinase promoter driving the luciferase gene) was combined with the B-galactosidase expression plasmid pCH110 (Pharmacia) and carrier DNA (pTZ18U) in the following ratio:
20 uL of this mixture was added to each well of cells and remained on the cells for 16 h. […] Each treatment condition was performed on 8 wells (n=8) which were incubated for 24 h prior to the luciferase assay.
After removing the PBS, 25 uL of Promega lysis buffer was added to each well and allowed to stand at room temperature for 15 min, followed by 15 min at −80° C. and 15 min at 37° C. 20 uL of lysate was transferred to an opaque 96 well plate for luciferase activity evaluation and the remaining lysate (5 uL) was used for the B-galactosidase activity evaluation (normalize transfection). The luciferan substrate (Promega) was added in 100 uL aliquots to each well automatically by the luminometer and the light produced (relative light units) was read 10 seconds after addition.
To the remaining 5 uL of lysate 45 uL of PBS was added. Then 50 uL of Promega B-galactosidase 2× assay buffer was added, mixed well and incubated at 37° C. for 1 hour. A plate containing a standard curve (0.1 to 1.5 milliunits in triplicate) was set up for each experimental run. The plates were analyzed on a Molecular Devices spectrophotometric plate reader at 410 nm. The optical densities for the unknown were converted to milliunits of activity by mathematical extrapolation from the standard curve.
The luciferase data was generated as relative light units (RLUs) accumulated during a 10 second measurement and automatically transferred to a JMP (SAS Inc) file where background RLUs were subtracted. The B-galactosidase values were automatically imported into the file and these values were divided into the RLUs to normalize the data. The mean and standard deviations were determined from a n=8 for each treatment. […] These techniques are described by Tzukerman, M. T., Esty, A., Santiso-Mere, D., Danielian, P., Parker, M. G., Stein, R. B., Pike, J. W. and McDonnel, D. P. (1994).

Row | SMILES | IC50 (estrogen receptor [1]) [nM] | Infection Luciferase Activity 1 uM + 17β estradiol (estrogen receptor [2]) [%] | Infection Luciferase Activity 1 uM (estrogen receptor [2]) [%]
1 | Cc1c(-c2ccc(O)cc2)n(Cc2ccc(OCCCN3CCCCC3)cc2)c2ccc(O)cc12 [Example No. 166, 2-(4-Hydroxy-phenyl)-3-methyl-1-{4-[3-(piperidin-1-yl)-propoxy]-benzyl}-1H-indol-5-ol] | 99 | – | –
2 | Cc1c(-c2ccc(O)cc2)n(Cc2ccc(OCCN3CCCCC3)cc2)c2ccccc12 [compound 86, 4-{3-Methyl-1-[4-(2-piperidin-1-yl-ethoxy)-benzyl]-1H-indol-2-yl}-phenol hydrochloride] | – | 2 | −5
3 | COc1ccc2c(c1)c(C)c(-c1ccc(O)cc1)n2Cc1ccc(OCCN2CCCCC2)cc1 [compound 88, 4-{5-Methoxy-3-methyl-1-{4-[2-(piperidin-1-yl)-ethoxy]-benzyl}-1H-indol-2-yl}-phenol] | – | 44 | 4
4 | COc1ccc(-c2c(C)c3cc(O)ccc3n2Cc2ccc(OCCN3CCCCC3)cc2)cc1 [compound 89, 2-(4-methoxy-phenyl)-3-methyl-1-{4-[2-(piperidin-1-yl)-ethoxy]-benzyl}-1H-indol-5-ol] | – | 18 | 16
5 | COc1ccc(-c2c(C)c3cc(OC)ccc3n2Cc2ccc(OCCN3CCCCC3)cc2)cc1 [compound 90, 5-Methoxy-2-(4-methoxy-phenyl)-3-methyl-1-[4-(2-piperidin-1-yl-ethoxy)-benzyl]-1H-indole] | – | 58 | 3
6 | CCOc1ccc(-c2c(C)c3cc(O)ccc3n2Cc2ccc(OCCN3CCCCC3)cc2)cc1 [compound 92, 2-(4-Ethoxy-phenyl)-3-methyl-1-[4-(2-piperidin-1-yl-ethoxy)-benzyl]-1H-indol-5-ol] | – | −2 | −4
7 | CCOc1ccc(-c2c(C)c3cc(O)ccc3n2Cc2ccc(OCCN3CCCCCC3)cc2)cc1 [compound 93, 1-[4-(2-Azepan-1-yl-ethoxy)-benzyl]-2-(4-ethoxy-phenyl)-3-methyl-1H-indol-5-ol] | – | −2 | −3
8 | Cc1c(-c2ccc(O)cc2)n(Cc2ccc(OCCN3CCCCC3)cc2)c2ccc(F)cc12 [compound 94, 4-{5-Fluoro-3-methyl-1-[4-(2-piperidin-1-yl-ethoxy)-benzyl]-1H-indol-2-yl}-phenol] | – | 15 | −5
9 | Cc1c(-c2ccc(O)cc2)n(Cc2ccc(OCCN3CCCC3)cc2)c2ccc(O)cc12 [compound 96, 2-(4-Hydroxy-phenyl)-3-methyl-1-[4-(2-pyrollidin-1-yl-ethoxy)-benzyl]-1H-indol-5-ol] | – | 8 | 12
10 | CCCCN(C)CCOc1ccc(Cn2c(-c3ccc(O)cc3)c(C)c3cc(O)ccc32)cc1 [compound 105, 1-{4-[2-(Butyl-methyl-amino)-ethoxy]-benzyl}-2-(4-hydroxy-phenyl)-3-methyl-1H-indol-5-ol] | 28 | – | –
11 | Cc1c(-c2ccc(O)cc2)n(Cc2ccc(OCCN3CCCC(C)C3)cc2)c2ccc(O)cc12 (centres unmarked) [compound 109, 2-(4-Hydroxy-phenyl)-3-methyl-1-{4-[2-(3-methyl-piperdin-1-yl)-ethoxy]-benzyl}-1H-indol-5-ol] | 170 | – | –
12 | Cc1c(-c2ccc(F)cc2)n(Cc2ccc(OCCN3CCCCC3)cc2)c2ccc(O)cc12 [compound 116, 2-(4-Fluoro-phenyl)-3-methyl-1-[4-(2-piperidine-1-yl-ethoxy)-benzyl]-1H-indol-5-ol] | – | 1 | −1
13 | Cc1c(-c2ccc(F)cc2)n(Cc2ccc(OCCN3CCCCCC3)cc2)c2ccc(O)cc12 [compound 117, 1-[4-(2-Azepan-1-yl-ethoxy)-benzyl]-2-(4-fluoro-phenyl)-3-methyl-1H-indol-5-ol] | – | 1 | 0
14 | Cc1c(-c2ccc3c(c2)OCO3)n(Cc2ccc(OCCN3CCCCC3)cc2)c2ccc(O)cc12 [compound 119, 2-Benzo[1,3]dioxol-5-yl-3-methyl-1-[4-(2-piperidin-1-yl-ethoxy)-benzyl]-1H-indol-5-ol] | – | −1 | −1
15 | Cc1c(-c2ccc(C(F)(F)F)cc2)n(Cc2ccc(OCCN3CCCCC3)cc2)c2ccc(O)cc12 [compound 123, 3-Methyl-1-[4-(2-piperidin-1-yl-ethoxy)-benzyl]-2-(4-trifluoromethyl-phenyl)-1H-indol-5-ol] | 170 | – | –
16 | COc1ccc(-c2c(C)c3cc(O)ccc3n2Cc2ccc(OCCN3CCCCC3)cc2)c(OC)c1 [compound 126, 2-(2,4-Dimethoxy-phenyl)-3-methyl-1-[4-(2-piperidin-1-yl-ethoxy)-benzyl]-1H-indol-5-ol] | – | 0 | −1
17 | Cc1c(-c2cccc(O)c2)n(Cc2ccc(OCCN3CCCCC3)cc2)c2ccc(O)cc12 [compound 127, 2-(3-Hydroxy-phenyl)-3-methyl-1-[4-(2-piperidin-1-yl-ethoxy)-benzyl]-1H-indol-5-ol] | 19 | – | –
18 | Cc1c(-c2ccc(O)c(F)c2)n(Cc2ccc(OCCN3CCCCC3)cc2)c2ccc(O)cc12 [compound 129, 2-(3-Fluoro-4-hydroxy-phenyl)-3-methyl-1-[4-(2-piperidin-1-yl-ethoxy)-benzyl]-1H-indol-5-ol] | 5.5 | – | –
19 | Cc1c(-c2ccc(O)c(F)c2)n(Cc2ccc(OCCN3CCCCCC3)cc2)c2ccc(O)cc12 [compound 130, 2-(3-Fluoro-4-hydroxy-phenyl)-3-methyl-1-[4-(azepan-1-yl-ethoxy)-benzyl]-1H-indol-5-ol] | 13 | – | –
20 | COc1cccc(-c2c(C)c3cc(O)ccc3n2Cc2ccc(OCCN3CCCCC3)cc2)c1 [compound 131, 2-(3-Methoxy-phenyl)-3-methyl-1-[4-(2-piperidin-1-yl-ethoxy)-benzyl]-1H-indole-5-ol] | 120 | – | –
